Test [1] relates to M. tuberculosis MDR (resistant to isoniazid and rifampicin). Description: microbe, parasite or virus in culture. In kind it is cell-based. The following applies: Mycobacterium tuberculosis, 504 h, read-out: MIC M. tb MDR.
The subject of test [2] is M. tuberculosis XDR (resistant to isoniazid, rifampicin, amikacin and moxifloxacin). In words: microbe, parasite or virus in culture. Format: cell-based. The conditions noted are these: Mycobacterium tuberculosis, 504 h, read-out: MIC M. tb XDR.

These results are taken from patent US9845330B2, “6-nitro-2,3-dihydroimidazo[2,1-b]oxazoles and a process for the preparation thereof” (priority 2013, dated 2017).

Converted amounts (≈) assume the structure as drawn.

As to `Cc1ccc(-c2cc(-c3ccc(OC[C@@]4(C)Cn5cc([N+](=O)[O-])nc5O4)cc3)no2)cc1` [IC6, (R)-2-{4-[5-(4-methylphenyl)isoxazol-3-yl]phenoxymethyl}-2,3-dihydro-2-methyl-6-nitroimidazo[2,1-b]oxazole], the MIC in test [1] and in test [2] was 1 µg/mL (≈ 2.31 µM) in each case.

With `COc1ccc(-c2cc(-c3ccc(OC[C@@]4(C)Cn5cc([N+](=O)[O-])nc5O4)cc3)no2)cc1` [IC7, (R)-2-{4-[5-(4-methoxyphenyl)isoxazol-3-yl]phenoxymethyl}-2,3-dihydro-2-methyl-6-nitroimidazo[2,1-b]oxazole], the MIC in test [1] and in test [2] was 1 µg/mL (≈ 2.23 µM) throughout.

In the case of `C[C@]1(COc2ccc(-c3cc(-c4cccc(F)c4)on3)cc2)Cn2cc([N+](=O)[O-])nc2O1` [IC8, (R)-2-{4-[5-(3-fluorophenyl)isoxazol-3-yl]phenoxymethyl}-2,3-dihydro-2-methyl-6-nitroimidazo[2,1-b]oxazole], the MIC in test [1] and in test [2] was 2 µg/mL (≈ 4.58 µM) throughout.

As for `C[C@]1(COc2ccc(-c3cc(-c4ccccn4)on3)cc2)Cn2cc([N+](=O)[O-])nc2O1` [IC9, (R)-2-{4-[5-(pyridin-2-yl)isoxazol-3-yl]phenoxymethyl}-2,3-dihydro-2-methyl-6-nitroimidazo[2,1-b]oxazole], the MIC in test [1] and in test [2] was 2 µg/mL (≈ 4.77 µM) each time.

For the molecule `C[C@]1(COc2ccc(-c3cc(-c4ccc(OC(F)(F)F)cc4)on3)cc2)Cn2cc([N+](=O)[O-])nc2O1` [IC10, (R)-2-{4-[5-(4-trifluoromethoxyphenyl)isoxazol-3-yl]phenoxymethyl}-2,3-dihydro-2-methyl-6-nitroimidazo[2,1-b]oxazole], the MIC in test [1] and in test [2] was 0.5 µg/mL (≈ 0.995 µM) in each case.

In the case of `CCCCCc1cc(-c2ccc(OC[C@@]3(C)Cn4cc([N+](=O)[O-])nc4O3)cc2)no1` [IC11, (R)-2-{4-[5-pentylisoxazol-3-yl]phenoxymethyl}-2,3-dihydro-2-methyl-6-nitroimidazo[2,1-b]oxazole], the MIC in test [1] and in test [2] was 32 µg/mL (≈ 77.6 µM) each time.

For `CCCCCCCc1cc(-c2ccc(OC[C@@]3(C)Cn4cc([N+](=O)[O-])nc4O3)cc2)no1` [IC12, (R)-2-{4-[5-heptylisoxazol-3-yl]phenoxymethyl}-2,3-dihydro-2-methyl-6-nitroimidazo[2,1-b]oxazole], the MIC in test [1] and in test [2] was 2 µg/mL (≈ 4.54 µM) throughout.

On to `C[C@]1(COc2ccc(-c3cc(COc4ccc(OC(F)(F)F)cc4)on3)cc2)Cn2cc([N+](=O)[O-])nc2O1` [IC13, (R)-2-{4-[5-(4-trifluoromethoxyphenoxymethyl)isoxazol-3-yl]phenoxymethyl}-2,3-dihydro-2-methyl-6-nitroimidazo[2,1-b]oxazole], for which the MIC in test [1] and in test [2] was 0.12 µg/mL (≈ 0.225 µM) each time.

Regarding `C[C@]1(COc2ccc(-c3cc(COc4ccc(F)cc4)on3)cc2)Cn2cc([N+](=O)[O-])nc2O1` [IC14, (R)-2-{4-[5-(4-fluorophenoxymethyl)isoxazol-3-yl]phenoxymethyl}-2,3-dihydro-2-methyl-6-nitroimidazo[2,1-b]oxazole], the MIC in test [1] and in test [2] was 0.12 µg/mL (≈ 0.257 µM) in each case.

For `C[C@]1(COc2ccc(-c3cc(COc4ccc(C(F)(F)F)cc4)on3)cc2)Cn2cc([N+](=O)[O-])nc2O1` [IC15, (R)-2-{4-[5-(4-trifluoromethylphenoxymethyl)isoxazol-3-yl]phenoxymethyl}-2,3-dihydro-2-methyl-6-nitroimidazo[2,1-b]oxazole], the MIC in test [1] and in test [2] was 0.5 µg/mL (≈ 0.968 µM) throughout.

As for `C[C@]1(COc2ccc(-c3cc(COc4ccccc4F)on3)cc2)Cn2cc([N+](=O)[O-])nc2O1` [IC16, (R)-2-{4-[5-(2-fluorophenoxymethyl)isoxazol-3-yl]phenoxymethyl}-2,3-dihydro-2-methyl-6-nitroimidazo[2,1-b]oxazole], the MIC in test [1] and in test [2] was 0.5 µg/mL (≈ 1.07 µM) each time.

As to `Cc1ccc(OCc2cc(-c3ccc(OC[C@@]4(C)Cn5cc([N+](=O)[O-])nc5O4)cc3)no2)cc1` [IC17, (R)-2-{4-[5-(4-methylphenoxymethyl)isoxazol-3-yl]phenoxymethyl}-2,3-dihydro-2-methyl-6-nitroimidazo[2,1-b]oxazole], the MIC in test [1] and in test [2] was 0.5 µg/mL (≈ 1.08 µM) in each case.

Take `CC(C)c1ccc(OCc2cc(-c3ccc(OC[C@@]4(C)Cn5cc([N+](=O)[O-])nc5O4)cc3)no2)cc1` [IC18, (R)-2-{4-[5-(4-isopropylphenoxymethyl)isoxazol-3-yl]phenoxymethyl}-2,3-dihydro-2-methyl-6-nitroimidazo[2,1-b]oxazole]: the MIC in test [1] and in test [2] was 0.25 µg/mL (≈ 0.51 µM) in each case.

As for `CCc1ccc(OCc2cc(-c3ccc(OC[C@@]4(C)Cn5cc([N+](=O)[O-])nc5O4)cc3)no2)cc1` [IC19, (R)-2-{4-[5-(4-ethylphenoxymethyl)isoxazol-3-yl]phenoxymethyl}-2,3-dihydro-2-methyl-6-nitroimidazo[2,1-b]oxazole], the MIC in test [1] and in test [2] was 2 µg/mL (≈ 4.2 µM) throughout.

For `CCC(C)c1ccc(OCc2cc(-c3ccc(OC[C@@]4(C)Cn5cc([N+](=O)[O-])nc5O4)cc3)no2)cc1` (stereo partly drawn) [IC20, (R)-2-{4-[5-(4-sec-butylphenoxymethyl)isoxazol-3-yl]phenoxymethyl}-2,3-dihydro-2-methyl-6-nitroimidazo[2,1-b]oxazole], the MIC in test [1] and in test [2] was 2 µg/mL (≈ 3.96 µM) in each case.

With `C[C@]1(COc2ccc(-c3cc(COc4ccccc4)on3)cc2)Cn2cc([N+](=O)[O-])nc2O1` [IC21, (R)-2-{4-[5-(phenoxymethyl)isoxazol-3-yl]phenoxymethyl}-2,3-dihydro-2-methyl-6-nitroimidazo[2,1-b]oxazole], the MIC in test [1] and in test [2] was 4 µg/mL (≈ 8.92 µM) throughout.

With `C[C@]1(COc2ccc(-c3cc(COc4ccc(F)cc4F)on3)cc2)Cn2cc([N+](=O)[O-])nc2O1` [IC22, (R)-2-{4-[5-(2,4-difluorophenoxymethyl)isoxazol-3-yl]phenoxymethyl}-2,3-dihydro-2-methyl-6-nitroimidazo[2,1-b]oxazole], the MIC in test [1] and in test [2] was 0.12 µg/mL (≈ 0.248 µM) throughout.

Take `C[C@]1(COc2ccc(NC(=O)Nc3ccc(F)cc3)cc2)Cn2cc([N+](=O)[O-])nc2O1` [IIA1, (R)-1-(4-fluorophenyl)-3-{4-(2-methyl-6-nitro-2,3-dihydroimidazo[2,1-b]oxazol-2-yl)methoxyphenyl}urea]: the MIC in test [1] and in test [2] was 2 µg/mL (≈ 4.68 µM) throughout.

Regarding `CCc1ccc(NC(=O)Nc2ccc(OC[C@@]3(C)Cn4cc([N+](=O)[O-])nc4O3)cc2)cc1` [IIA2, (R)-1-(4-ethylphenyl)-3-{4-(2-methyl-6-nitro-2,3-dihydroimidazo[2,1-b]oxazol-2-yl)methoxyphenyl}urea], the MIC in test [1] and in test [2] was 0.5 µg/mL (≈ 1.14 µM) in each case.

As for `C[C@]1(COc2ccc(NC(=O)Nc3ccc(C(F)(F)F)cc3)cc2)Cn2cc([N+](=O)[O-])nc2O1` [IIA3, (R)-1-(4-trifluoromethylphenyl)-3-{4-(2-methyl-6-nitro-2,3-dihydroimidazo[2,1-b]oxazol-2-yl)methoxyphenyl}urea], the MIC in test [1] and in test [2] was 0.12 µg/mL (≈ 0.251 µM) each time.

With `Cc1ccc(NC(=O)Nc2ccc(OC[C@@]3(C)Cn4cc([N+](=O)[O-])nc4O3)cc2)cc1` [IIA4, (R)-1-(4-methylphenyl)-3-{4-(2-methyl-6-nitro-2,3-dihydroimidazo[2,1-b]oxazol-2-yl)methoxyphenyl}urea], the MIC in test [1] and in test [2] was 0.06 µg/mL (≈ 0.142 µM) throughout.

In the case of `COc1ccc(NC(=O)Nc2ccc(OC[C@@]3(C)Cn4cc([N+](=O)[O-])nc4O3)cc2)cc1` [IIA5, (R)-1-(4-methoxyphenyl)-3-{4-(2-methyl-6-nitro-2,3-dihydroimidazo[2,1-b]oxazol-2-yl)methoxyphenyl}urea], the MIC in test [1] and in test [2] was 1 µg/mL (≈ 2.28 µM) throughout.

On to `C[C@]1(COc2ccc(NC(=O)Nc3ccc(OC(F)(F)F)cc3)cc2)Cn2cc([N+](=O)[O-])nc2O1` [IIA6, (R)-1-(4-trifluoromethoxyphenyl)-3-{4-(2-methyl-6-nitro-2,3-dihydroimidazo[2,1-b]oxazol-2-yl)methoxyphenyl}urea], for which the MIC in test [1] and in test [2] was 0.5 µg/mL (≈ 1.01 µM) in each case.

`COc1ccc(NC(=S)Nc2ccc(OC[C@@]3(C)Cn4cc([N+](=O)[O-])nc4O3)cc2)cc1` [IIA7, (R)-1-(4-methoxyphenyl)-3-{4-(2-methyl-6-nitro-2,3-dihydroimidazo[2,1-b]oxazol-2-yl)methoxyphenyl}thiourea]: the MIC in test [1] and in test [2] was 2 µg/mL (≈ 4.39 µM) each time.

As for `C[C@]1(COc2ccc(NC(=S)Nc3ccc(OC(F)(F)F)cc3)cc2)Cn2cc([N+](=O)[O-])nc2O1` [IIA8, (R)-1-(4-trifluoromethoxyphenyl)-3-{4-(2-methyl-6-nitro-2,3-dihydroimidazo[2,1-b]oxazol-2-yl)methoxyphenyl}thiourea], the MIC in test [1] and in test [2] was 2 µg/mL (≈ 3.93 µM) in each case.

Turning to `C[C@]1(COc2ccc(NC(=S)Nc3ccc(F)cc3)cc2)Cn2cc([N+](=O)[O-])nc2O1` [IIA9, (R)-1-(4-fluorophenyl)-3-{4-(2-methyl-6-nitro-2,3-dihydroimidazo[2,1-b]oxazol-2-yl)methoxyphenyl}thiourea], the MIC in test [1] and in test [2] was 4 µg/mL (≈ 9.02 µM) throughout.

`C[C@]1(COc2ccc(NC(=S)Nc3ccc(C(F)(F)F)cc3)cc2)Cn2cc([N+](=O)[O-])nc2O1` [IIA10, (R)-1-(4-trifluoromethylphenyl)-3-{4-(2-methyl-6-nitro-2,3-dihydroimidazo[2,1-b]oxazol-2-yl)methoxyphenyl}thiourea]: the MIC in test [1] and in test [2] was 4 µg/mL (≈ 8.11 µM) in each case.

As for `Cc1ccc(NS(=O)(=O)c2ccc(OC[C@@]3(C)Cn4cc([N+](=O)[O-])nc4O3)cc2)cc1` [IIB1, (R)-4-{(2-methyl-6-nitro-2,3-dihydroimidazo[2,1-b]oxazol-2-yl)methoxy}-N-(p-tolyl)benzenesulfonamide], the MIC in test [1] and in test [2] was 2 µg/mL (≈ 4.5 µM) each time.
